From patent publication US8455475B2 (Gruenenthal GmbH, priority 2009, dated 2013) come the findings set out here.

The target of one assay is T1, rat B1R (bradykinin receptor 1) (Rattus norvegicus, UniProt P97583).
T1 construct: expressed in transfected cells; host or cells: CHO K1 cells
T1 sequence (P97583 1-337): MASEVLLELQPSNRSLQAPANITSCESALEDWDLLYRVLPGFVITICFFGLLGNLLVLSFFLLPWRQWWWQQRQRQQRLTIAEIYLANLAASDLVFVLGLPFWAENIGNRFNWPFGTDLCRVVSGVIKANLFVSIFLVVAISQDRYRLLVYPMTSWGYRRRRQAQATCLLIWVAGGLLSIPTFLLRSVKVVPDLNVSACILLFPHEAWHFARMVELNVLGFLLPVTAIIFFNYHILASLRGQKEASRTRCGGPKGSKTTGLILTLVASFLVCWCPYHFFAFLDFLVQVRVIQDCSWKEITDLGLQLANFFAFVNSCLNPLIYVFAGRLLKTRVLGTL
In words: FLIPR Ca2+ assay (Fluo-4) on CHO K1 cells stably transfected with the B1R gene of the rat (rB1R cells): % inhibition at 10 μM / IC50, agonist Des-Arg9-bradykinin. Type of assay: cell-based. Particulars: CHO-K1, rat B1R. The procedure, abridged: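 Cells were Fluo-4-loaded, then test compound (10 μM, or a concentration series for IC50) was preincubated 10–20 min before agonist challenge at EC80: Lys-Des-Arg9-bradykinin for hB1R, Des-Arg9-bradykinin for rB1R. Peak Ca2+ fluorescence (ex 488/em 540 nm) gave % inhibition versus maximal achievable inhibition.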
A word on the inhibition: it is the change of the read-out against control, counted positive when it falls. In the case of `O=C(NC1CCc2ccc(C(=O)N3CCC4(CCN(Cc5ccc(F)cc5Cl)CC4)CC3)cc21)c1c(F)cccc1Cl` (stereo not shown) [IND_CC-802, 2-Chloro-N-[6-[9-[(2-chloro-4-fluoro-phenyl)-methyl]-3,9-diazaspiro-[5.5]undecane-3-carbonyl]-2,3-dihydro-1H-inden-1-yl]-6-fluoro-benzamide], the inhibition at 10 µM worked out at 89%.

Regarding `O=C(NC1CCc2ccc(C(=O)N3CCC4(CCN(CCc5ccccc5)CC4)C3)cc21)c1cc(C(F)(F)F)ccc1Cl` (stereo not shown) [IND_CC-690, 2-Chloro-N-[6-(8-phenethyl-2,8-diazaspiro[4.5]decane-2-carbonyl)-2,3-dihydro-1H-inden-1-yl]-5-(trifluoromethyl)-benzamide], the inhibition at 10 µM was found to be 85%.

Regarding `CN(C(=O)c1ccccc1Cl)C1CCc2ccc(C(=O)N3CCC4(CCN(Cc5ccc6nccnc6c5)CC4)C3)cc21` (stereo not shown) [IND_CC-506, 2-Chloro-N-methyl-N-[6-[8-(quinoxalin-6-yl-methyl)-2,8-diazaspiro[4.5]decane-2-carbonyl]-2,3-dihydro-1H-inden-1-yl]-benzamide], the inhibition at 10 µM amounted to 61%.

As to `COc1ccc(CN2CCC3(CC2)CCN(C(=O)c2ccc4c(c2)C(NC(=O)c2c(F)cccc2Cl)CC4)CC3)cc1F` (stereo not shown) [IND_CC-792, 2-Chloro-6-fluoro-N-[6-[9-[(3-fluoro-4-methoxy-phenyl)-methyl]-3,9-diazaspiro[5.5]undecane-3-carbonyl]-2,3-dihydro-1H-inden-1-yl]-benzamide], the inhibition at 10 µM turned out to be 89%.

For the molecule `COc1cc(C)c(C(=O)NC2CCc3ccc(C(=O)N4CCC5(CCN(C(=O)c6cc(C)nn6C(C)(C)C)CC5)C4)cc32)c(C)c1` (stereo not shown) [IND_CC-581, N-[6-[8-(2-tert-Butyl-5-methyl-2H-pyrazole-3-carbonyl)-2,8-diazaspiro[4.5]decane-2-carbonyl]-2,3-dihydro-1H-inden-1-yl]-4-methoxy-2,6-dimethyl-benzamide], the inhibition at 10 µM was determined as 67%.

Turning to `O=C(Nc1c(Cl)cccc1Cl)N1CCC2(CC1)CCN(C(=O)c1ccc3c(c1)C(N(C(=O)c1ccccc1Cl)C1CC1)CC3)C2` (stereo not shown) [IND_CC-718, 2-[3-[(2-Chloro-benzoyl)-cyclopropyl-amino]-2,3-dihydro-1H-indene-5-carbonyl]-N-(2,6-dichloro-phenyl)-2,8-diazaspiro[4.5]decane-8-carboxylic acid amide], the inhibition at 10 µM came to 52%.

In the case of `O=C(c1ccc2c(c1)C(NS(=O)(=O)c1cc(Cl)ccc1Cl)CC2)N1CCC2(CCN(c3ccncc3)CC2)C1` (stereo not shown) [IND_CC-357, 2,5-Dichloro-N-[6-(8-pyridin-4-yl-2,8-diazaspiro[4.5]decane-2-carbonyl)-2,3-dihydro-1H-inden-1-yl]-benzenesulfonic acid amide], the inhibition at 10 µM was 95%.

For `CC1(C)CC(NS(=O)(=O)c2ccc(C(F)(F)F)cc2Cl)c2cc(C(=O)N3CCC4(CC3)CCN(c3ccncc3)CC4)ccc21` (stereo not shown) [IND_CC-331, 2-Chloro-N-[3,3-dimethyl-6-(3-pyridin-4-yl-3,9-diazaspiro[5.5]undecane-9-carbonyl)-1,2-dihydro-inden-1-yl]-4-(trifluoromethyl)-benzenesulfonic acid amide], the inhibition at 10 µM was determined as 94%.

For the molecule `Cc1noc(C)c1CN1CCC2(CC1)CCN(C(=O)c1ccc3c(c1)C(NC(=O)c1ccccc1Cl)CC3)CC2` (stereo not shown) [IND_CC-532, 2-Chloro-N-[6-[9-[(3,5-dimethyl-isoxazol-4-yl)-methyl]-3,9-diazaspiro[5.5]undecane-3-carbonyl]-2,3-dihydro-1H-inden-1-yl]-benzamide], the inhibition at 10 µM came to 62%.

With `O=C(NC1CCc2ccc(C(=O)N3CCC4(CCN(Cc5ccc6ncccc6c5)CC4)C3)cc21)c1ccccc1Cl` (stereo not shown) [IND_CC-567, 2-Chloro-N-[6-[8-(quinolin-6-yl-methyl)-2,8-diazaspiro[4.5]decane-2-carbonyl]-2,3-dihydro-1H-inden-1-yl]-benzamide], the inhibition at 10 µM was 100%.

With `O=C(NC1CCc2ccc(C(=O)N3CCC4(CCN(c5ccncc5)CC4)C3)cc21)C1CCCC1` (stereo not shown) [IND_CC-394, N-[6-(8-Pyridin-4-yl-2,8-diazaspiro[4.5]decane-2-carbonyl)-2,3-dihydro-1H-inden-1-yl]-cyclopentanecarboxylic acid amide], the inhibition at 10 µM turned out to be 103%.

As to `O=C(NC1CCc2ccc(C(=O)N3CCC4(CCN(Cc5ccc(F)c(F)c5)CC4)CC3)cc21)c1ccccc1Cl` (stereo not shown) [IND_CC-514, 2-Chloro-N-[6-[9-[(3,4-difluoro-phenyl)-methyl]-3,9-diazaspiro[5.5]undecane-3-carbonyl]-2,3-dihydro-1H-inden-1-yl]-benzamide], the inhibition at 10 µM came to 102%.

Turning to `Cn1cccc1CN1CCC2(CC1)CCN(C(=O)c1ccc3c(c1)C(NC(=O)c1ccccc1Cl)CC3)CC2` (stereo not shown) [IND_CC-512, 2-Chloro-N-[6-[9-[(1-methyl-1H-pyrrol-2-yl)-methyl]-3,9-diazaspiro[5.5]undecane-3-carbonyl]-2,3-dihydro-1H-inden-1-yl]-benzamide], the inhibition at 10 µM came out at 92%.

Turning to `O=C(NC1CCc2ccc(CC(=O)N3CCC4(CCN(Cc5ccc6ncccc6c5)CC4)C3)cc21)c1ccccc1Cl` (stereo not shown) [IND_CC-804, 2-Chloro-N-[6-[2-oxo-2-[8-(quinolin-6-yl-methyl)-3,8-diazaspiro[4.5]decan-3-yl]-ethyl]-2,3-dihydro-1H-inden-1-yl]-benzamide], the inhibition at 10 µM is 61%.

With `CN(C)c1ncc(CN2CCC3(CC2)CCN(C(=O)c2ccc4c(c2)C(NC(=O)c2ccccc2Cl)CC4)C3)cn1` (stereo not shown) [IND_CC-566, 2-Chloro-N-[6-[8-[(2-dimethylamino-pyrimidin-5-yl)-methyl]-2,8-diazaspiro[4.5]decane-2-carbonyl]-2,3-dihydro-1H-inden-1-yl]-benzamide], the inhibition at 10 µM came out at 90%.

`Cc1noc(C)c1CN1CCC2(CC1)CCN(C(=O)c1ccc3c(c1)C(NC(=O)c1cc(C(F)(F)F)ccc1Cl)CC3)CC2` (stereo not shown) [IND_CC-665, 2-Chloro-N-[6-[9-[(3,5-dimethyl-isoxazol-4-yl)-methyl]-3,9-diazaspiro[5.5]-undecane-3-carbonyl]-2,3-dihydro-1H-inden-1-yl]-5-(trifluoromethyl)benzamide]: the inhibition at 10 µM was found to be 67%.

On to `O=C(Nc1ccc(Cl)cc1C(F)(F)F)N1CCC2(CC1)CCN(C(=O)c1ccc3c(c1)C(N(C(=O)c1ccccc1Cl)C1CC1)CC3)C2` (stereo not shown) [IND_CC-714, 2-[3-[(2-Chloro-benzoyl)-cyclopropyl-amino]-2,3-dihydro-1H-indene-5-carbonyl]-N-[4-chloro-2-(trifluoromethyl)-phenyl]-2,8-diazaspiro[4.5]decane-8-carboxylic acid amide], for which the inhibition at 10 µM came out at 51%.

For the molecule `O=C(NC1CCc2ccc(C(=O)N3CCC4(CCN(Cc5ccc(F)c(F)c5)CC4)C3)cc21)c1cc(Cl)ccc1F` (stereo not shown) [IND_CC-621, 5-Chloro-N-[6-[8-[(3,4-difluoro-phenyl)-methyl]-2,8-diazaspiro[4.5]decane-2-carbonyl]-2,3-dihydro-1H-inden-1-yl]-2-fluoro-benzamide], the inhibition at 10 µM amounted to 67%.

Turning to `O=C(NC1CCc2ccc(C(=O)N3CCC4(CCN(Cc5ccc6nccnc6c5)CC4)CC3)cc21)c1cc(Cl)ccc1F` (stereo not shown) [IND_CC-678, 5-Chloro-2-fluoro-N-[6-[9-(quinoxalin-6-yl-methyl)-3,9-diazaspiro[5.5]undecane-3-carbonyl]-2,3-dihydro-1H-inden-1-yl]-benzamide], the inhibition at 10 µM came to 82%.

For the molecule `N#Cc1ccccc1CN1CCC2(CC1)CCN(C(=O)c1ccc3c(c1)C(NC(=O)c1cc(C(F)(F)F)ccc1Cl)CC3)C2` (stereo not shown) [IND_CC-660, 2-Chloro-N-[6-[8-[(2-cyano-phenyl)-methyl]-2,8-diazaspiro[4.5]decane-2-carbonyl]-2,3-dihydro-1H-inden-1-yl]-5-(trifluoromethyl)-benzamide], the inhibition at 10 µM was found to be 50%.

For the molecule `Cc1cccc(Cl)c1C(=O)NC1CCc2ccc(C(=O)N3CCC4(CCN(Cc5c(C)nn(C)c5C)CC4)C3)cc21` (stereo not shown) [IND_CC-761, 2-Chloro-6-methyl-N-[6-[8-[(1,3,5-trimethyl-1H-pyrazol-4-yl)-methyl]-2,8-diazaspiro[4.5]decane-2-carbonyl]-2,3-dihydro-1H-inden-1-yl]-benzamide], the inhibition at 10 µM was found to be 57%.

As to `O=C(NC1CCc2ccc(C(=O)N3CCC4(CCN(Cc5cc(F)ccc5F)CC4)C3)cc21)c1sccc1Cl` (stereo not shown) [IND_CC-547, 3-Chloro-N-[6-[8-[(2,5-difluoro-phenyl)-methyl]-2,8-diazaspiro[4.5]decane-2-carbonyl]-2,3-dihydro-1H-inden-1-yl]-thiophene-2-carboxylic acid amide], the inhibition at 10 µM came out at 71%.

For `CN(C1CCc2ccc(C(=O)N3CCC4(CC3)CCN(c3ccncc3)CC4)cc21)S(=O)(=O)c1ccc(Br)cc1Cl` (stereo not shown) [IND_CC-405, 4-Bromo-2-chloro-N-methyl-N-[6-(9-pyridin-4-yl-3,9-diazaspiro[5.5]undecane-3-carbonyl)-2,3-dihydro-1H-inden-1-yl]-benzenesulfonic acid amide], the inhibition at 10 µM amounted to 96%.

Consider `Cc1cccc(C(=O)N(C)C2CCc3ccc(C(=O)N4CCC5(CC4)CCN(c4ccncc4)CC5)cc32)c1C` (stereo not shown) [IND_CC-387, N,2,3-Trimethyl-N-[6-(9-pyridin-4-yl-3,9-diazaspiro[5.5]undecane-3-carbonyl)-2,3-dihydro-1H-inden-1-yl]-benzamide], for which the inhibition at 10 µM came to 104%.

The assay is the same for the next values; noted with them: rat B1R.
In the case of “2-Chloro-N-[6-[8-[(2-chloro-4-fluoro-phenyl)-methyl]-2,8-diazaspiro-[4.5]decane-2-carbonyl]-2,3-dihydro-1H-inden-1-yl]-6-fluoro-benzamide [IND_CC-741]”, the “% Inhibition (rat B1R) at 10 μM” value worked out at 100%.
